Results reported in patent publication US20120157452A1, “1H-PYRAZOLO[3,4-B] PYRIDINE COMPOUNDS FOR INHIBITING RAF KINASE” (GENENTECH, INC., priority 2009, published 2012).

Molecular target: T1, V600E full-length B-Raf (Homo sapiens, UniProt P15056, V600E)
T1 construct: made in house; host or cells: Sf9 insect cells (baculovirus)
Assay: B-Raf IC50 assay: incorporation of radio labeled phosphate from [γ-33P]ATP into FSBA-modified wild-type MEK
Assay type: biochemical
Excerpt: Determining the activity of Raf in the sample is possible by a number of direct and indirect detection methods (US 2004/0082014). Activity of human recombinant B-Raf protein may be assessed in vitro by assay of the incorporation of radio labeled phosphate to recombinant MAP kinase (MEK), a known physiologic substrate of B-Raf, according to US 2004/0127496 and WO 03/022840. The activity/inhibition of V600E full-length B-Raf was estimated by measuring the incorporation of radio labeled phosphate from [γ-^33]ATP into FSBA-modified wild-type MEK (see Biological Example 1).
Activity of human recombinant B-Raf protein may be assessed in vitro by assay of the incorporation of radio labeled phosphate to recombinant MAP kinase (MEK), a known physiologic substrate of B-Raf, according to US 2004/0127496 and WO 03/022840. Catalytically active human recombinant B-Raf protein is obtained by purification from sf9 insect cells infected with a human B-Raf recombinant baculovirus expression vector.
The activity/inhibition of V600E full-length B-Raf was estimated by measuring the incorporation of radio labeled phosphate from [γ-^33]ATP into FSBA-modified wild-type MEK. The 30-μL, assay mixtures contained 25 mM Na Pipes, pH 7.2, 100 mM KCl, 10 mM MgCl2, 5 mM β-glycerophosphate, 100 μM Na Vanadate, 4 μM ATP, 500 nCi [γ-^33P]ATP, 1 μM FSBA-MEK and 20 nM V600E full-length B-Raf. Incubations were carried out at 22° C. in a Costar 3365 plate (Corning). Prior to the assay, the B-Raf and FSBA-MEK were preincubated together in assay buffer at 1.5× (20 μL of 30 nM and 1.5 μM, respectively) for 15 minutes, and the assay was initiated by the addition of 10 μL of […]. Following the 60-minute incubation, the assay mixtures were quenched by the addition of 100 μL of 25% TCA, the plate was mixed on a rotary shaker for 1 minute, and the product was captured on a Perkin-Elmer GF/B filter plate using a Tomtec Mach III Harvester. After sealing the bottom of the plate, 35 μL of Bio-Safe II (Research Products International) scintillation cocktail were added to each well and the plate was top-sealed and counted in a Topcount NXT (Packard).

[1] = 4 μM ATP, 60-minute incubation, representative data of multiple tests

T1 sequence (P15056 whole entry V600E): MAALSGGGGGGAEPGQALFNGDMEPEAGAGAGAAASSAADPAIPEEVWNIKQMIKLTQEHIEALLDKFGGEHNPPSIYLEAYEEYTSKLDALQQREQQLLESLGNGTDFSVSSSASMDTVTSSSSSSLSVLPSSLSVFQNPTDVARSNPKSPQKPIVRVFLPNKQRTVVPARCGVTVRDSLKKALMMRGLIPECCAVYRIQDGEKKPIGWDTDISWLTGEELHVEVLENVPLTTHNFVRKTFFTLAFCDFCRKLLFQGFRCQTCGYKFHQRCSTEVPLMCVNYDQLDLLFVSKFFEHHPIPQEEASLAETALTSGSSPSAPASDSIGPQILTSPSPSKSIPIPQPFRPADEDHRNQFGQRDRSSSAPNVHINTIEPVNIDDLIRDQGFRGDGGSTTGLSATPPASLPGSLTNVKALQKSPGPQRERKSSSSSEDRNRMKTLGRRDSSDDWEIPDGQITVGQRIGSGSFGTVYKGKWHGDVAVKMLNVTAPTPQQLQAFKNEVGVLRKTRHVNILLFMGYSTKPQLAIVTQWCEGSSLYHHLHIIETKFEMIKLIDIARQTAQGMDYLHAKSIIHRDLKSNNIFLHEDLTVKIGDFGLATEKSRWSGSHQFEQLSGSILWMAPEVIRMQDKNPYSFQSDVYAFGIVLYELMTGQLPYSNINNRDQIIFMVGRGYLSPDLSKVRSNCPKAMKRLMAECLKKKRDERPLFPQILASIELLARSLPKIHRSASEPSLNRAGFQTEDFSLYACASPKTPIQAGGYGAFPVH

| Structure (SMILES) | IC50 [1] | IC50 (bound stated) |
| --- | --- | --- |
| COc1n[nH]c2ncc(NC(=O)c3c(Cl)ccc(OCc4ccn(C)n4)c3F)cc12 [Example 58, 6-chloro-2-fluoro-N-(3-methoxy-1H-pyrazolo[3,4-b]pyridin-5-yl)-3-((1-methyl-1H-pyrazolo-3-yl)methoxy)benzamide] | 37.1 nM | < 100 nM |
| COc1n[nH]c2ncc(NC(=O)c3c(Cl)ccc(OCc4csc(C)n4)c3F)cc12 [Example 59, 6-chloro-2-fluoro-N-(3-methoxy-1H-pyrazolo[3,4-b]pyridin-5-yl)-3-((2-methylthiazol-4-yl)methoxy)benzamide] | 10.6 nM | < 100 nM |
| COc1n[nH]c2ncc(NC(=O)c3c(Cl)ccc(OCc4ccccc4Cl)c3F)cc12 [Example 60, 6-chloro-3-(2-chlorobenzyloxy)-2-fluoro-N-(3-methoxy-1H-pyrazolo[3,4-b]pyridin-5-yl)benzamide] | 1.28 nM | < 100 nM |
| COc1n[nH]c2ncc(NC(=O)c3c(Cl)ccc(OCc4cc(C)on4)c3F)cc12 [Example 61, 6-chloro-2-fluoro-N-(3-methoxy-1H-pyrazolo[3,4-b]pyridin-5-yl)-3-((5-methylisoxazol-3-yl)methoxy)benzamide] | 80.1 nM | < 100 nM |
| COc1n[nH]c2ncc(NC(=O)c3c(Cl)ccc(OCc4ccc(F)cc4F)c3F)cc12 [Example 62, 6-chloro-3-(2,4-difluorobenzyloxy)-2-fluoro-N-(3-methoxy-1H-pyrazolo[3,4-b]pyridin-5-yl)benzamide] | 1.45 nM | < 100 nM |
| COc1n[nH]c2ncc(NC(=O)c3c(Cl)ccc(OCc4ccc5c(c4)OCO5)c3F)cc12 [Example 63, 3-(benzo[d][1,3]dioxol-5-ylmethoxy)-6-chloro-2-fluoro-N-(3-methoxy-1H-pyrazolo[3,4-b]pyridin-5-yl)benzamide] | 1.71 nM | < 100 nM |
| COc1n[nH]c2ncc(NC(=O)c3c(Cl)ccc(OCc4cccc(CN5CCOCC5)c4)c3F)cc12 [Example 64, 6-chloro-2-fluoro-N-(3-methoxy-1H-pyrazolo[3,4-b]pyridin-5-yl)-3-(3-(morpholinomethyl)benzyloxy)benzamide] | 9.29 nM | < 100 nM |

Further lines, results first:

| IC50 [1] | IC50 (bound stated) | Structure (SMILES) |
| --- | --- | --- |
| 0.63 nM | < 100 nM | COc1n[nH]c2ncc(NC(=O)c3c(Cl)ccc(OCc4ccc5c(c4)CCO5)c3F)cc12 [Example 65] |
| 1.5 nM | < 100 nM | COc1n[nH]c2ncc(NC(=O)c3c(Cl)ccc(OCc4ccc(Cl)cc4F)c3F)cc12 [Example 66, 6-chloro-3-(4-chloro-2-fluorobenzyloxy)-2-fluoro-N-(3-methoxy-1H-pyrazolo[3,4-b]pyridin-5-yl)benzamide] |
| 61 nM | < 100 nM | COc1n[nH]c2ncc(NC(=O)c3c(Cl)ccc(OC(C)c4ccccc4)c3F)cc12 (stereo not drawn) [Example 67, 6-chloro-2-fluoro-N-(3-methoxy-1H-pyrazolo[3,4-b]pyridin-5-yl)-3-(1-phenylethoxy)benzamide] |
| 658 nM |  | COc1n[nH]c2ncc(NC(=O)c3c(Cl)ccc(OCc4cncnc4)c3F)cc12 [Example 68, 6-chloro-2-fluoro-N-(3-methoxy-1H-pyrazolo[3,4-b]pyridin-5-yl)-3-(pyrimidin-5-ylmethoxy)benzamide] |
| 1.66 nM | < 100 nM | COc1n[nH]c2ncc(NC(=O)c3c(Cl)ccc(OCc4ccc5ncccc5c4)c3F)cc12 [Example 69, 6-chloro-2-fluoro-N-(3-methoxy-1H-pyrazolo[3,4-b]pyridin-5-yl)-3-(quinolin-6-ylmethoxy)benzamide] |
| 25.7 nM | < 100 nM | COc1n[nH]c2ncc(NC(=O)c3c(Cl)ccc(OCc4cnn(C)c4)c3F)cc12 [Example 70, 6-chloro-2-fluoro-N-(3-methoxy-1H-pyrazolo[3,4-b]pyridin-5-yl)-3-((1-methyl-1H-pyrazol-4-yl)methoxy)benzamide] |
| 0.66 nM | < 100 nM | COc1n[nH]c2ncc(NC(=O)c3c(C)ccc(OCc4ccc(F)cc4)c3F)cc12 [Example 71, 2-fluoro-3-(4-fluorobenzyloxy)-N-(3-methoxy-1H-pyrazolo[3,4-b]pyridin-5-yl)-6-methylbenzamide] |
